The source of these data is ChEMBL document CHEMBL1143163, “Structures of the ligand-binding core of iGluR2 in complex with the agonists (R)- and (S)-2-amino-3-(4-hydroxy-1,2,5-thiadiazol-3-yl)propionic acid explain their unusual equipotency” (J Med Chem, 2008).

One assay concerns the target Glutamate receptor 3 (Homo sapiens, UniProt P42263). The experiment in a line: Binding affinity at iGluR3o receptor expressed in sf9 cells by radioligand binding assay.
A further assay concerns the target Glutamate receptor 1 (Homo sapiens, UniProt P42261). The experiment in a line: Binding affinity at iGluR1o receptor expressed in sf9 cells by radioligand binding assay.
In assay [1] the target is Glutamate receptor ionotropic, kainate 2 (Homo sapiens, UniProt Q13002). The experiment in a line: Binding affinity at iGluR6(V,C,R) receptor expressed in sf9 cells by radioligand binding assay.
Assay [2] has as its target T1, Glutamate receptor 2 (Homo sapiens, UniProt P42262). Briefly: Binding affinity at iGluR2 receptor S1S2J domain expressed in sf9 cells by radioligand binding assay.
The target in a further assay is Glutamate receptor 4 (Homo sapiens, UniProt P48058). The experiment in a line: Binding affinity at iGluR4o receptor expressed in sf9 cells by radioligand binding assay.
The target in assay [3] is T1, Glutamate receptor 2. Briefly: Binding affinity at iGluR2o(R) receptor expressed in sf9 cells by radioligand binding assay.

T1 sequence (P42262 whole entry, the tested form may be a part): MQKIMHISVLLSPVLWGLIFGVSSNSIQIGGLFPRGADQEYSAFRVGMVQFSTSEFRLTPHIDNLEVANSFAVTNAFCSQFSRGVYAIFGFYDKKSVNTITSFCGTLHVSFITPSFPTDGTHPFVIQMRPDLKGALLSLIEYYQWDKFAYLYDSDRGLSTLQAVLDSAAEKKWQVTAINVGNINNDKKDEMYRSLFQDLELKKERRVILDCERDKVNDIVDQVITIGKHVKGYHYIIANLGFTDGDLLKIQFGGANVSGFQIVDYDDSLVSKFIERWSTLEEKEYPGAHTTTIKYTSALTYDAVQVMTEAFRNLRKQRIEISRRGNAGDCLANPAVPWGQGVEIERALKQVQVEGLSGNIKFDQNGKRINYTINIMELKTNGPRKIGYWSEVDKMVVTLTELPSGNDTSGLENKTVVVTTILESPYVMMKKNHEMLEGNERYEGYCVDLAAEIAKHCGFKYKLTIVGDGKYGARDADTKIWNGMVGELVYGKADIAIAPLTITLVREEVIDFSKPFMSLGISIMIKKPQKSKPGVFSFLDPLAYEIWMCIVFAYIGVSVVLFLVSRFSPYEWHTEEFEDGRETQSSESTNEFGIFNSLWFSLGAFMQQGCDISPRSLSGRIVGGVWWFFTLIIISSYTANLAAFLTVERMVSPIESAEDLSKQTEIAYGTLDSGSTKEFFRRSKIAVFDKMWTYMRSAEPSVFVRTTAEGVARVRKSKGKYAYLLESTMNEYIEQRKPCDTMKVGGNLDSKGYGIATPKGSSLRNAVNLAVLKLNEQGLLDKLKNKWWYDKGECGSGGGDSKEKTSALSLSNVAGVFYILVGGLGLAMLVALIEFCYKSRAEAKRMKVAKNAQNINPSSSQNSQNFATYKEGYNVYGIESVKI
Sequence of Glutamate receptor 4 (P48058 whole entry): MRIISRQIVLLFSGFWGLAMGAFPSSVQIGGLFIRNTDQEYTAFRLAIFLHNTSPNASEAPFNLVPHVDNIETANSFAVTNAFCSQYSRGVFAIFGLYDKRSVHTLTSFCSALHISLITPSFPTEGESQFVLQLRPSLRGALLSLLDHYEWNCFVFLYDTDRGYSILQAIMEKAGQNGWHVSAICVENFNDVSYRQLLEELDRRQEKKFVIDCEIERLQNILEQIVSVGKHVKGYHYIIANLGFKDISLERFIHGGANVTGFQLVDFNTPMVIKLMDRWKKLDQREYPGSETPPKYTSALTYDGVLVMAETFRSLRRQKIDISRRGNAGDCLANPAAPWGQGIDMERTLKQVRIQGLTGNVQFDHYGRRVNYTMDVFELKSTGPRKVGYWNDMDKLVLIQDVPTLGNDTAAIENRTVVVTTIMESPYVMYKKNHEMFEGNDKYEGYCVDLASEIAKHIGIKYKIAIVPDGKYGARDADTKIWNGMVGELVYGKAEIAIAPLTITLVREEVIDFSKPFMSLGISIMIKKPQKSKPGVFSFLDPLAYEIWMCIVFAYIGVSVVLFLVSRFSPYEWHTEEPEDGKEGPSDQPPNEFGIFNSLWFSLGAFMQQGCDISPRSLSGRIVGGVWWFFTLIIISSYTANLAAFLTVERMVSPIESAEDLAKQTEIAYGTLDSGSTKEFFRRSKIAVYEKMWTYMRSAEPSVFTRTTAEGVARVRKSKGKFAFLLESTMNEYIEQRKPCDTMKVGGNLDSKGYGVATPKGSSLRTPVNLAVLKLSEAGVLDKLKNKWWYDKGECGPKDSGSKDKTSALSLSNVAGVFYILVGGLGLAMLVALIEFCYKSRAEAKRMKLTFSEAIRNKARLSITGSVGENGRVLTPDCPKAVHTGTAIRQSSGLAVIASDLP
Sequence of Glutamate receptor 3 (P42263 whole entry): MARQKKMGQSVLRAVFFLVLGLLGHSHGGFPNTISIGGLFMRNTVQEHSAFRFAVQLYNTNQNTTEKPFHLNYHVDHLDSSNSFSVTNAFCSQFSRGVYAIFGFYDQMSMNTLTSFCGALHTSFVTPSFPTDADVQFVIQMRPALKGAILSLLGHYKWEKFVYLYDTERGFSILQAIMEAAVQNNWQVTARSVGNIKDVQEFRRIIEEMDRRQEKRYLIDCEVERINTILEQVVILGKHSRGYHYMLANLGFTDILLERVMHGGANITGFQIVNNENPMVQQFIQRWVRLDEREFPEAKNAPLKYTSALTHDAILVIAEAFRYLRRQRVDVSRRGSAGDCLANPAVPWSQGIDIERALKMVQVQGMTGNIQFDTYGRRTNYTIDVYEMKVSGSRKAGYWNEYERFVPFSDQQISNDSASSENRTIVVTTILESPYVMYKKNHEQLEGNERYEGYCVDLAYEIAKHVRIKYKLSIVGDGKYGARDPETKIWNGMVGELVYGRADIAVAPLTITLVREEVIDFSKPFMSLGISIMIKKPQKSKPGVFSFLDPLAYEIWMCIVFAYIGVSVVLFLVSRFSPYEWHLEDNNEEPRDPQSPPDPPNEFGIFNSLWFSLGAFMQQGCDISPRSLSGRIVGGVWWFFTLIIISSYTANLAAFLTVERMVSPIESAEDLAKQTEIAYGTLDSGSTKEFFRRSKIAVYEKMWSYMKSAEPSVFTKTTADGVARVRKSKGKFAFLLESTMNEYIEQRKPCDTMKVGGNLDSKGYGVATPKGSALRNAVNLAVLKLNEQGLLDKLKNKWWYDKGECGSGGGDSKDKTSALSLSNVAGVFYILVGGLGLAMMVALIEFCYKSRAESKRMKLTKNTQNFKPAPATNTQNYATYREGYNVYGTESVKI
Sequence of Glutamate receptor ionotropic, kainate 2 (Q13002 whole entry, the tested form may be a part): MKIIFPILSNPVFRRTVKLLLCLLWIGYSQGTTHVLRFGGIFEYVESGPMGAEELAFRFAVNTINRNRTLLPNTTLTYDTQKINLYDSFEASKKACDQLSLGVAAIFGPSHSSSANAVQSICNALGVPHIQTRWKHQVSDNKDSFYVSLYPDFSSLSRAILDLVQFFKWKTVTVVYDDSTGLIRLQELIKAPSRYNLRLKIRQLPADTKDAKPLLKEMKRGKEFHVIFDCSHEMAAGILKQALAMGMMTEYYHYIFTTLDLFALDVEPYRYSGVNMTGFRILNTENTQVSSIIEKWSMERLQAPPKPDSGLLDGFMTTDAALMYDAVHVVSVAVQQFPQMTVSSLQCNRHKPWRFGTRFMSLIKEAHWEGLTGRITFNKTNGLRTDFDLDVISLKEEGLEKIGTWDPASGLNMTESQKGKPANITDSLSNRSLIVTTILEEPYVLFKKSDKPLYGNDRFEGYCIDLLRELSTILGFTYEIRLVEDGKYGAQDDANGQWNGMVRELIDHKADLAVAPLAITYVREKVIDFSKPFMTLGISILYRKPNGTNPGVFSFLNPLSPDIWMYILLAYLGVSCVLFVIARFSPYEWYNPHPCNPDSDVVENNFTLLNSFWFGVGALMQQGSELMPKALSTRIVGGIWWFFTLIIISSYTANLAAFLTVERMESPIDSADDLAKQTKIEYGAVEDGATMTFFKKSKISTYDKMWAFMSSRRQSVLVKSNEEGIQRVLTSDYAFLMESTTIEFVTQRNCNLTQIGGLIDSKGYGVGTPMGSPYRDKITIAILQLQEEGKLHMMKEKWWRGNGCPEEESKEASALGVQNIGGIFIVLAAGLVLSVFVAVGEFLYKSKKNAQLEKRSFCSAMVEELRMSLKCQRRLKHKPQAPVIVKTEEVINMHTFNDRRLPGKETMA
Sequence of Glutamate receptor 1 (P42261 whole entry): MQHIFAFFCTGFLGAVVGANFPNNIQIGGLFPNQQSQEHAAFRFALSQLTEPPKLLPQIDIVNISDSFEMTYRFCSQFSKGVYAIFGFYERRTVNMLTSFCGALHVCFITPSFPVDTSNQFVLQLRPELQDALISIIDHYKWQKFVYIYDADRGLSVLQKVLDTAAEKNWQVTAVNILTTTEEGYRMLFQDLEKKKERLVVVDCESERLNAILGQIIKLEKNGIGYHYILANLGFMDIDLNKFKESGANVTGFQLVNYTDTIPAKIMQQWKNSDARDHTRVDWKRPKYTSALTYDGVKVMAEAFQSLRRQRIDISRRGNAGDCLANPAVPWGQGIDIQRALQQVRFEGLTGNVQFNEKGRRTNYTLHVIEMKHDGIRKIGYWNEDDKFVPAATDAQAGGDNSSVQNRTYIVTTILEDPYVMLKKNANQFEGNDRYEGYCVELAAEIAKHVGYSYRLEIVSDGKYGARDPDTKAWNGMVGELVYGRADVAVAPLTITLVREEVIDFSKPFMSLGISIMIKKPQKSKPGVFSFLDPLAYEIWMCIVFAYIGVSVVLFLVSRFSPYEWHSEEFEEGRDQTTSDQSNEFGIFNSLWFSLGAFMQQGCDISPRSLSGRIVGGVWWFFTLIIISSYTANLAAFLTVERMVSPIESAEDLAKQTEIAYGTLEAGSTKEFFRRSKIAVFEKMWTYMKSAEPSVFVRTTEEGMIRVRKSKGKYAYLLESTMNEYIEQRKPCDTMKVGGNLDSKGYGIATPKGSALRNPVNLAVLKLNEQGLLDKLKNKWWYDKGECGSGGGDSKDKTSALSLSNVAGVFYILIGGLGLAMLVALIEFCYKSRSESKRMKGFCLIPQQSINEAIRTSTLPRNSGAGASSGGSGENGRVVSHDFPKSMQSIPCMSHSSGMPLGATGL

The term Ki denotes the dissociation constant of the complex between target and ligand, obtained from inhibition or displacement. A high value points to lower affinity. Consider `N[C@H](Cc1ns[nH]c1=O)C(=O)O`, for which the Ki on Glutamate receptor 3 was 1.07 µM; at Glutamate receptor 1 it was 0.15 µM; in assay [1], more than 1000 µM; at Glutamate receptor 2 [2], 0.531 µM; on Glutamate receptor 4, 1.05 µM; on Glutamate receptor 2 [3], 0.234 µM.

In the case of `N[C@@H](Cc1nsnc1O)C(=O)O`, the Ki on Glutamate receptor 3 was 0.16 µM; on Glutamate receptor 1, 0.185 µM; in assay [1], more than 100 µM; at Glutamate receptor 2 [2] it was 0.323 µM; on Glutamate receptor 4, 0.182 µM; on Glutamate receptor 2 [3], 0.273 µM.
